Assay results published in article PMC12057336 (Antimicrobial Agents and Chemotherapy, 2025).

Biological target: T1, human OAT3 (Homo sapiens, UniProt Q8TCC7)
T1 sequence (Q8TCC7 1-542): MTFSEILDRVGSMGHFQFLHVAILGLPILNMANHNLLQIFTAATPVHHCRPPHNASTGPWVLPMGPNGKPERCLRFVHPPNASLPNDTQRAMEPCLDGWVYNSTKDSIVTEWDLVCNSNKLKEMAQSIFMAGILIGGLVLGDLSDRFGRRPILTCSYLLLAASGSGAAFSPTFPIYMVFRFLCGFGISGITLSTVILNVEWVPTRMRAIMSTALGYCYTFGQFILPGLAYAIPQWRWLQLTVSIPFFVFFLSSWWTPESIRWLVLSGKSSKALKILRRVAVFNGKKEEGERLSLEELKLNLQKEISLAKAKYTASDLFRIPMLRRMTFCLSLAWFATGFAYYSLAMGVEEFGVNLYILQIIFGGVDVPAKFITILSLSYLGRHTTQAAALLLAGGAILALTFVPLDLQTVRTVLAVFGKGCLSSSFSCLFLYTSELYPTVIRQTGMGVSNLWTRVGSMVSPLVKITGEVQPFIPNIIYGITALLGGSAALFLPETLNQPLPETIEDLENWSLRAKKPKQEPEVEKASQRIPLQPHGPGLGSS
Test: Uptake in OAT3-transfected HEK293 cells
Details: 5 µM; 10 min; 37°C; vs mock cells
Protocol: OATP1B1-, OATP1B3-, OATP2B1-, NTCP-, OAT1-, and OAT3-transfected HEK293 cells were cultured in DMEM supplemented with 10% FBS, 100 U/mL penicillin-streptomycin at 37°C with 95% relative humidity atmosphere containing 5% CO2. All cells were seeded in 24-well plates at a density of 4 × 10^5 cells/well and cultured for 1–2 days until they reached 80%–90% confluence. Prior to the initiation of uptake studies, the cells were washed twice with HBSS buffer at 37°C. Membrane vesicles were stored at −80°C and thawed at 37°C prior to the initiation of the studies.
All uptake tests were performed in triplicates. The activities of transporter-transfected HEK293 cells were evaluated using relevant positive substrates and inhibitors. E17G (5 µM, OATP1B1 and OATP1B3), ES (2 µM, OATP2B1), ES (5 µM, OAT3), TCA (10 µM, NTCP), and PAH (20 µM, OAT1) were used as substrates of the transporters. The inhibitors for each transporter were rifampicin (200 µM, OATP1B1 and OATP1B3), erlotinib (10 µM, OATP2B1), CsA (20 µM, NTCP), and probenecid (200 µM, OAT1 and OAT3).
The cells were washed three times with ice-cold HBSS buffer. […] The total protein concentration was measured using a BCA Protein Assay Kit. The uptake rates of HEK293-OATP1B1, HEK293-OATP1B3, HEK293-OATP2B1, HEK293-NTCP, HEK293-OAT1, HEK293-OAT3, and mock cells were calculated. […]

Q: With `CC(=O)NC[C@H]1CN(c2ccc(N3CCOCC3)c(F)c2)C(=O)O1` [Linezolid] as the molecule, how does the “substrate for OAT3” value read?
A: The value was “not a substrate”.
